Reference: ChEMBL document CHEMBL5465560, “Selectivity Literature for EUbOPEN Chemogenomic Library” (2024)
Values belong to the compound of their own block, whether it stands above or below them.

Assays:
[1] = molecular target: Fibroblast growth factor receptor 3 (Homo sapiens, UniProt P22607); test: Selectivity interaction (Millipore kinase profiler) EUB0000124b FGFR3; settings: at 10 µM
[2] = molecular target: Death-associated protein kinase 1 (Homo sapiens, UniProt P53355); test: Selectivity interaction (KinomeScan (DiscoverX)) EUB0001049a DAPK1; settings: at 1 µM
[3] = molecular target: STE20-like serine/threonine-protein kinase (Homo sapiens, UniProt Q9H2G2); test: Selectivity interaction (Kinase panel (Invitrogen)) EUB0000639a SLK; settings: at 200 nM
[4] = molecular target: Protein arginine N-methyltransferase 3 (Homo sapiens, UniProt O60678); test: Selectivity interaction (Transferase panel (protein, RNA, and DNA methyltransferases. and EP300 (acetyltransferase))) EUB0000270b PRMT3
[5] = molecular target: T1, Serine/threonine-protein kinase Chk1 (Homo sapiens) (UniProt O14757); test: Selectivity interaction (Kinase panel (Z-LYTE Assay)) EUB0001632a CHEK1; settings: at 10 µM
T1 sequence (whole entry): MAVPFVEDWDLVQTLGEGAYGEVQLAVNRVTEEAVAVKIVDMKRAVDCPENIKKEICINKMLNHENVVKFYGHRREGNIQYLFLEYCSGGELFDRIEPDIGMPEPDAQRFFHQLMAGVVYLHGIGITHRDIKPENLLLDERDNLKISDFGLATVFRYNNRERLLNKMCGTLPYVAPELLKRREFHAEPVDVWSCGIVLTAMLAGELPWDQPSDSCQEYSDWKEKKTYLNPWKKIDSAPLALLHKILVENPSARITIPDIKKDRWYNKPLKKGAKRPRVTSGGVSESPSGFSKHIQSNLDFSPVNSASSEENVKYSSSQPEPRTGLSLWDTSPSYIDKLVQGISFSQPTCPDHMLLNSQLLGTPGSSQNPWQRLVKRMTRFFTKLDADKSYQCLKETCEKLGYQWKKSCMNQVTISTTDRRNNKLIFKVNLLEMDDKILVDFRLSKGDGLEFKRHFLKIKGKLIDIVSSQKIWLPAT

[6] = molecular target: Casein kinase I isoform epsilon (Homo sapiens, UniProt P49674); test: Selectivity interaction (KinomeScan (DiscoverX)) EUB0000229b CSNK1E; settings: at 10 µM
[7] = molecular target: Myosin-IIIa (Homo sapiens) (UniProt Q8NEV4); test: Selectivity interaction (KinomeScan (DiscoverX)) EUB0000229b MYO3A; settings: at 10 µM
[8] = molecular target: Tyrosine-protein kinase JAK1 (Homo sapiens, UniProt P23458); test: Selectivity interaction (KinomeScan (DiscoverX)) EUB0001079a JAK1; settings: at 1 µM
[9] = molecular target: Casein kinase I isoform gamma-2 (Homo sapiens) (UniProt P78368); test: Selectivity interaction (ProQinase) EUB0000171b CSNK1G2
[10] = molecular target: Rho-associated protein kinase 1 (Homo sapiens) (UniProt Q13464); test: Selectivity interaction (KinomeScan (DiscoverX)) EUB0000045b ROCK1
[11] = molecular target: Tyrosine-protein kinase HCK (Homo sapiens) (UniProt P08631); test: Selectivity interaction (KinomeScan (DiscoverX)) EUB0000045b HCK
[12] = molecular target: Calcium/calmodulin-dependent protein kinase type 1D (Homo sapiens) (UniProt Q8IU85); test: Selectivity interaction (KinomeScan (DiscoverX)) EUB0001619a CAMK1D; settings: at 1 µM
[13] = molecular target: Mitogen-activated protein kinase 10 (Homo sapiens, UniProt P53779); test: Selectivity interaction (ActivX KiNativ screen (ex vivo kinase selectivity in human PBMCs)) EUB0001619a MAPK10; format: cell-based; settings: PBMC, at 1 µM
[14] = molecular target: Fibroblast growth factor receptor 1 (Homo sapiens, UniProt P11362); test: Selectivity interaction (SelectScreen profiling (Invitrogen)) EUB0000607a FGFR1; settings: at 2 µM
[15] = molecular target: T2, Serine/threonine-protein kinase 3 (Homo sapiens) (UniProt Q13188); test: Selectivity interaction (Kinase panel (DSF assay)) EUB0001558a STK3
T2 sequence (whole entry): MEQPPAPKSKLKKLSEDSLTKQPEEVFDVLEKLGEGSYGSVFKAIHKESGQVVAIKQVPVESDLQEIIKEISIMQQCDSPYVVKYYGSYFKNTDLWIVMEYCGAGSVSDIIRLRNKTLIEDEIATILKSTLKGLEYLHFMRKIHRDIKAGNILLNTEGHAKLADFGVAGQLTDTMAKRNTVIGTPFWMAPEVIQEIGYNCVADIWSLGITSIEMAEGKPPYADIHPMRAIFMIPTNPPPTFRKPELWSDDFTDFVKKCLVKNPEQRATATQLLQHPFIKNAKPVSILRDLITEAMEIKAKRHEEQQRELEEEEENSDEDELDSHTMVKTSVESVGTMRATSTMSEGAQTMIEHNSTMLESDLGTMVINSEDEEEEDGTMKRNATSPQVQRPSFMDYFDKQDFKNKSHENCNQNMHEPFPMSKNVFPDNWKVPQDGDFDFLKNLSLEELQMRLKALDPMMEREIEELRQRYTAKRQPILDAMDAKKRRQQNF

Chain of Tyrosine-protein kinase HCK (Homo sapiens) (P08631 2-526 limits assumed): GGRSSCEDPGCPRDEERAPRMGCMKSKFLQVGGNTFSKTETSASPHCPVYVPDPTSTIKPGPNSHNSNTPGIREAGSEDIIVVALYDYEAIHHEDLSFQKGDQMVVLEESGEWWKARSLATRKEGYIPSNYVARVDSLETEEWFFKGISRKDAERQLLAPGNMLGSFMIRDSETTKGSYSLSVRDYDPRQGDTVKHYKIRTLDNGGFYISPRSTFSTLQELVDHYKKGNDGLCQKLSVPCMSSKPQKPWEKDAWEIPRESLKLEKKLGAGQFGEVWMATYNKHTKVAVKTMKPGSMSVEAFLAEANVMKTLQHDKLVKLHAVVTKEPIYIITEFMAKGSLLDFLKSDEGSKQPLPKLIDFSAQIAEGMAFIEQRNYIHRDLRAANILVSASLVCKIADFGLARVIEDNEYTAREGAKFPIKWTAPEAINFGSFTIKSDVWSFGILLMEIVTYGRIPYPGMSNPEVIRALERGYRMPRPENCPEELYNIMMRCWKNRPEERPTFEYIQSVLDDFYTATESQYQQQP
Chain of Protein arginine N-methyltransferase 3 (O60678 2-531 limits assumed): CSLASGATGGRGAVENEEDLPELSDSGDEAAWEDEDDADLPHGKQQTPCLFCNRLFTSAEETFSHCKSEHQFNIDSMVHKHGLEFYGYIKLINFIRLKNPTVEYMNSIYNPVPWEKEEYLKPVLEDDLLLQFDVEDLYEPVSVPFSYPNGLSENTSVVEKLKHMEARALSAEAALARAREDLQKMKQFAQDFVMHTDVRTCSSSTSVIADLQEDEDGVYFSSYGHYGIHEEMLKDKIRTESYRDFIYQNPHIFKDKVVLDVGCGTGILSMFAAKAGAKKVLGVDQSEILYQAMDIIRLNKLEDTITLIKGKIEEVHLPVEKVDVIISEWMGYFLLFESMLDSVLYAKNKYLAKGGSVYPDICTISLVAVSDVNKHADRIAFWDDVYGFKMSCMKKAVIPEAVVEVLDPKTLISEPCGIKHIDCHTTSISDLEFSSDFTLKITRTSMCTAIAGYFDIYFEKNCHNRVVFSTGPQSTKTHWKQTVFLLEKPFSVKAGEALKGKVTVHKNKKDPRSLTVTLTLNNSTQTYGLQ
Chain of Rho-associated protein kinase 1 (Homo sapiens) (Q13464 2-1354 limits assumed): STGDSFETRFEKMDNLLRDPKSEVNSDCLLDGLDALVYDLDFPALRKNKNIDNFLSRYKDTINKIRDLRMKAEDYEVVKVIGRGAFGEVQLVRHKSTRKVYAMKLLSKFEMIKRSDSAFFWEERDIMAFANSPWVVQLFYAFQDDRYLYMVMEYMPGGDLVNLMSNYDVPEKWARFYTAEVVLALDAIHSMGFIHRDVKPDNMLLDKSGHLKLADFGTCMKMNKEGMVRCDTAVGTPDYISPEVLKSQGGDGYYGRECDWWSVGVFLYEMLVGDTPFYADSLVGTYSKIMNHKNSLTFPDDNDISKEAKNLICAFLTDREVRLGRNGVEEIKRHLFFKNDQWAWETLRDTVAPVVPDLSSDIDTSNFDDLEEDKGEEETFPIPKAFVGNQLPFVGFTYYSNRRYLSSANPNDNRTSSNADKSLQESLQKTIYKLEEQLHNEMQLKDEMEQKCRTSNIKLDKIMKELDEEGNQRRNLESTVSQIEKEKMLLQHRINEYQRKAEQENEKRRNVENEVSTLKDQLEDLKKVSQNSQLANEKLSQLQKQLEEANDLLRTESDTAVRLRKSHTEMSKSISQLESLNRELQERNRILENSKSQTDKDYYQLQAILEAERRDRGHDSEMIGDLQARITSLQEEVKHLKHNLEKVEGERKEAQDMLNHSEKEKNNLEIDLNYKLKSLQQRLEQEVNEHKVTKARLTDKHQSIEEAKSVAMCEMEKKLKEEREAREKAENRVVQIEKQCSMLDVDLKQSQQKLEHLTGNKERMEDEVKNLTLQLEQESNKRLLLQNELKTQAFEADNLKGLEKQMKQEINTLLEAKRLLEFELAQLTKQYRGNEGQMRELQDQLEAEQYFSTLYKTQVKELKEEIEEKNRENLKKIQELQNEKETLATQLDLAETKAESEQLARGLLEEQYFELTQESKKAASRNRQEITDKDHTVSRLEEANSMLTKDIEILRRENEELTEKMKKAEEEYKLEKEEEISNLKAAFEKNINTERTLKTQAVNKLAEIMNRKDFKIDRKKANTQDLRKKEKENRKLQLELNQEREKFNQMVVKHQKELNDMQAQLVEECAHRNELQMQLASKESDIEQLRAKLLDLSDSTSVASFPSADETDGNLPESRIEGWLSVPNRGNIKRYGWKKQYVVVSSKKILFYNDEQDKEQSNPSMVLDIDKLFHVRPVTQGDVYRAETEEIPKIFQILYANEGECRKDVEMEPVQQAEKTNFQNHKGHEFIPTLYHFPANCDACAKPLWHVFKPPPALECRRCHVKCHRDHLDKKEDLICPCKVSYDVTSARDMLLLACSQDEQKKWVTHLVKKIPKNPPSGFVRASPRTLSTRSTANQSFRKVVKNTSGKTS
Chain of Casein kinase I isoform gamma-2 (Homo sapiens) (P78368 whole entry, looked up, canonical isoform): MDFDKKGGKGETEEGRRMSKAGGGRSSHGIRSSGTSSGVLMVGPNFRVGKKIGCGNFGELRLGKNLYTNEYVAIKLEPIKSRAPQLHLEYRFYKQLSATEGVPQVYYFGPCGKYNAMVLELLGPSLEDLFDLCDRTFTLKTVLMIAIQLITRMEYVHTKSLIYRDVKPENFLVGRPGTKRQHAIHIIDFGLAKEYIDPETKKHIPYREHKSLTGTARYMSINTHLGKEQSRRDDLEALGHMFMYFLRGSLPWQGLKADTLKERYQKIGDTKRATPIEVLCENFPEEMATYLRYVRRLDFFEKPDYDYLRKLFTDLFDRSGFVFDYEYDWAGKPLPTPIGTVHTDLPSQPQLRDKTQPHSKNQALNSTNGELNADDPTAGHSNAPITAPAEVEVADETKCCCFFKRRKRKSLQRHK
Chain of STE20-like serine/threonine-protein kinase (Q9H2G2 whole entry, looked up): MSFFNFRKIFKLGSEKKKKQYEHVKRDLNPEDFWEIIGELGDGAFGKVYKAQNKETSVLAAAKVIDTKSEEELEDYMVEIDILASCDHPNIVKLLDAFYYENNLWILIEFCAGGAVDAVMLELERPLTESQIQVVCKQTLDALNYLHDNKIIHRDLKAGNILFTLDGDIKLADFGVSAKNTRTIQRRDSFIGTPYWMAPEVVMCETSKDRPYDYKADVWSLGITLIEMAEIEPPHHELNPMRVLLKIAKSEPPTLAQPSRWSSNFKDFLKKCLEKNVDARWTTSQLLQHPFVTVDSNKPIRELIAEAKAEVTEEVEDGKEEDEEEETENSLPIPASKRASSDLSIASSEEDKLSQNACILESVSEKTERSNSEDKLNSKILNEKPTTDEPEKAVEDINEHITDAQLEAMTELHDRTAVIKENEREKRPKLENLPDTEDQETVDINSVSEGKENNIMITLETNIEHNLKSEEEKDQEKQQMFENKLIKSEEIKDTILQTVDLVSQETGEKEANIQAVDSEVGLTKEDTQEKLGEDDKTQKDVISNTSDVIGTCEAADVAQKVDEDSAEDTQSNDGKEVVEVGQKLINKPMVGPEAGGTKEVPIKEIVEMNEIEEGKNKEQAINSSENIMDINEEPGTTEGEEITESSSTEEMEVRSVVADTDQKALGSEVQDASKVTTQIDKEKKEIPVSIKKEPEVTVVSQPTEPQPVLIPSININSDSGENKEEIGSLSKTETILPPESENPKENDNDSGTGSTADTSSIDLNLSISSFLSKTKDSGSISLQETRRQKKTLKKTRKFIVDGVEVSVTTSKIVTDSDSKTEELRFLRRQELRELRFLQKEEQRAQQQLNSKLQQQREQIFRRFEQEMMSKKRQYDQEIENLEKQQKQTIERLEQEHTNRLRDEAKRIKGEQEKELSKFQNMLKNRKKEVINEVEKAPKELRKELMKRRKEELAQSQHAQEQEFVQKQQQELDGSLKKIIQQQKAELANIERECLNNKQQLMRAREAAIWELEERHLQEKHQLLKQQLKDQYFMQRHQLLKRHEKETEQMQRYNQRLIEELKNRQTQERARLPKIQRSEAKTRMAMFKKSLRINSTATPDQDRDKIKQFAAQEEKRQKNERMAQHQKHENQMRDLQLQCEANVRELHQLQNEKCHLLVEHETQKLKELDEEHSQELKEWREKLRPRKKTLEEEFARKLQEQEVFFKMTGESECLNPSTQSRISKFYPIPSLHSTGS
Chain of Casein kinase I isoform epsilon (P49674 whole entry, looked up, canonical isoform): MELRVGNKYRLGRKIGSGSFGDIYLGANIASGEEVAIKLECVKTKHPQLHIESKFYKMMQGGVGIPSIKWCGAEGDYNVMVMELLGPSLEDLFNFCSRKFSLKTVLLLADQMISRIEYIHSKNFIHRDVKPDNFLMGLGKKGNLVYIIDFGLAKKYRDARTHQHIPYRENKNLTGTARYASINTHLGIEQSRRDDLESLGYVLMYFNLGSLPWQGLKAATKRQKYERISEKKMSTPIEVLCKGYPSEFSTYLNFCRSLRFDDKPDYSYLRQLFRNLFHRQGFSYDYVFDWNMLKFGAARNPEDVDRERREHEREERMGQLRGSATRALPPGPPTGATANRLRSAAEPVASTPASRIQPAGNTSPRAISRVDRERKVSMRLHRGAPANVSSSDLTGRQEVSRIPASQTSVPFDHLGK
Chain of Calcium/calmodulin-dependent protein kinase type 1D (Homo sapiens) (Q8IU85 whole entry, looked up): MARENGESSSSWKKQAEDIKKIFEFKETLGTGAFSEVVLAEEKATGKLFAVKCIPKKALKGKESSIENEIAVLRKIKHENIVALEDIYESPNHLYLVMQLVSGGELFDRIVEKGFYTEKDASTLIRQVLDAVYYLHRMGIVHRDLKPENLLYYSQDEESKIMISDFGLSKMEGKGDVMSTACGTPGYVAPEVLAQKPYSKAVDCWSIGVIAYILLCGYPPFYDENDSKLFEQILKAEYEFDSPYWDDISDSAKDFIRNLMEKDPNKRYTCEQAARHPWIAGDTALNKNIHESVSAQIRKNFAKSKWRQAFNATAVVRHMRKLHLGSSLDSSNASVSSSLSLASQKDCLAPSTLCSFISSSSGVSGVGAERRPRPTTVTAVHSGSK

% of control [1]: 98%
Structure (SMILES): CC(=O)Nc1cccc(-n2c(=O)n(C3CC3)c(=O)c3c(Nc4ccc(I)cc4F)n(C)c(=O)c(C)c32)c1

Structure (SMILES): COc1cc(Nc2nc(C)cc(-c3cnn4nc(OC)ccc34)n2)cc(C(F)(F)F)c1
% of control [2]: 88%

% of inhibition [3]: -0.0851%
Structure (SMILES): CC[C@@H]1[C@H](F)C(=O)N[C@@H]1COc1nccc2cc(C(N)=O)c(OC)cc12 [ZIMLOVISERTIB]

% activity ([4]; at 1 µM): > 90% | % activity ([4]; at 10 µM): > 80%
Structure (SMILES): Cc1cc(CN)cc(C)c1-c1ncn(C)c1-c1cncn1C

% of control [5]: 37.8%
Structure (SMILES): Cn1cc(-n2cnc3c(NCc4nc5cc(Cl)c(Cl)cc5[nH]4)nc(N4CCOCC4)nc32)cn1

Structure (SMILES): COc1cc(N(C)c2ccnc3ccc(C(F)(F)F)cc23)cc(OC)c1OC
% binding [6]: 54% | % binding [7]: 94%

Structure (SMILES): Nc1cnc(N2CCc3cc(S(=O)(=O)Nc4c(F)cc(Cl)cc4F)cc(N4CCCC4=O)c32)nc1 [TP-020n]
% of control [8]: 100%

% of control ([9]; at 1 µM): 22% | % of control ([9]; at 5 µM): 5%
Structure (SMILES): C=CC(=O)Nc1cccc(C(=O)Nc2ccc(Nc3cc(-c4[nH]c(SC)nc4C)ccn3)cc2)c1

Structure (SMILES): C=CC(=O)Nc1cc(-n2c(=O)ccc3cnc4ccc(-c5ccc(NS(C)(=O)=O)cc5)cc4c32)ccc1C
% of control ([10]; at 1 µM): 56% | % of control ([10]; at 10 µM): 59% | % of control ([11]; at 1 µM): 97% | % of control ([11]; at 10 µM): 100%

Structure (SMILES): N#Cc1cccc(-c2c[nH]c3ncnc(N4CCOCC4)c23)c1
% of control [12]: 88% | % of inhibition [13]: 5%

Structure (SMILES): CNC(=O)Nc1ccc(-c2nc(N3CC4CCC(C3)O4)c3cnn(C4CCC5(CC4)OCCO5)c3n2)cc1
% of inhibition [14]: 4%

Structure (SMILES): CC(C)(O)[C@H](F)CN1Cc2cc(NC(=O)c3cnn4cccnc34)c(N3CCOCC3)cc2C1=O
dTM [15]: 2.1 K
